According to patent US11498933B2, “Prodrug compositions” (The University of Liverpool, priority 2017, dated 2022):
Blank lines part the entries; values can stand above or below the compound they belong to.

Tests used:
[1] = Prodrug hydrolysis in human plasma; assay type: in vitro ADME; conditions: 37° C., depletion of starting material, read-out: Human Plasma t1/2
Experimental: (§1) Reaction mixtures containing either mouse liver S9 (20.8 mg/mL), mouse plasma, rat liver S9 (1 mg/mL) and phosphate buffer (100 mM, pH 7.4), rat plasma, human liver S9 (1.0 mg/mL) and phosphate buffer (100 mM, pH 7.4) or human plasma were pre-incubated at 37° C. for 5 minutes. Reactions were then initiated by addition of compounds 4, 8 or 16 (1 mM in mouse, 0.5 mM in rat and human). […] The samples were analyzed by HPLC with UV detection and the resulting hydrolysis data can be seen in FIG. 12.
(§2) In all cases, the half-lives for compound 4 are shorter than that of compound 8. […] In all cases, the half-life indicates the depletion of starting material compounds. […] In human compartments, only carbonate cleavage is observed.

[2] = Prodrug hydrolysis in human liver S9; assay type: in vitro ADME; conditions: pH 7.4, human liver S9 1.0 mg/mL, 37° C., depletion of starting material, read-out: Human Liver t1/2
Experimental: as §1, §2

[3] = Prodrug hydrolysis in rat liver S9; assay type: in vitro ADME; conditions: pH 7.4, rat liver S9 1 mg/mL, 37° C., depletion of starting material, read-out: Rat Liver t1/2
Experimental: as §1, §2

[4] = Prodrug hydrolysis in rat plasma; assay type: in vitro ADME; conditions: 37° C., depletion of starting material, read-out: Rat Plasma t1/2
Experimental: as §1, §2

[5] = Kinetic analysis of 5′-acyloxy/alkoxycarbonyl prodrug hydrolysis in human liver S9 (HPLC-UV); assay type: in vitro ADME; conditions: for Km: both sexes, human, pooled human liver S9, pH 7.4, 17: 5′-acetoxy hydrolysis, 1.0 mg/mL S9, 5: 5′-pentoxycarbonyl hydrolysis, 3.0 mg/mL S9, 37° C.; for Km / Intrinsic Clearance / Vmax: conversion to compound 13; for Intrinsic Clearance / Vmax: 17: 1.0 mg/mL S9, 5: 3.0 mg/mL S9; for half-lives in human liver S9: FIG. 7
Experimental: A reaction mixture containing Tris buffer (30 mM, pH 7.4) and mixed pooled gender liver S9 (1 mg/mL, 3.0 mg/mL, or 4.0 mg/mL) are pre-incubated at 37° C. for 5 minutes. To the reaction mixtures is added compound 17 which initiates the hydrolysis reaction (concentrations of compound 17 ranging from 200 μM to 10 mM). […] The supernatant was diluted into Tris buffer (30 mM, pH 7.4) to yield samples with concentrations appropriate for analysis. The samples were analyzed by HPLC with UV detection using the following method (0% to 100% acetonitrile in Et3NHOAc (50 mM, pH 8) gradient) over 10 minutes at a flow rate of 3 mL min^−1, held at 100% acetonitrile for 3 minutes, ramped down to 5% acetonitrile over 0.2 minutes and then held for 2.8 minutes.
Kinetic analysis data for the conversion of compound 17 to compound 13 via 5′-acetoxy hydrolysis is illustrated in FIG. 5. The hydrolysis was performed under conditions in which the pentyl carbamate group of compound 17 is stable in 1.0 mg/mL pooled mixed gender human liver S9. It was observed that the intrinsic clearance for the 5′-acetoxy hydrolysis is greater than that for the carbamate group hydrolysis.
Kinetic analysis data for the conversion of compound 5 to compound 13 via 5′-pentoxycarbonyl hydrolysis is illustrated in FIG. 6 (concentrations of compound 5 ranging from 200 μM to 10 mM). The hydrolysis was performed under conditions in which the pentyl carbamate group is stable in 3.0 mg/mL pooled mixed gender human liver S9. It was observed that the intrinsic clearance for 5′-pentoxycarbonyl hydrolysis is greater than that for carbamate group hydrolysis but reduced when compared to the intrinsic clearance of the 5′-acetoxy hydrolysis. Kinetic analysis data for the conversion of compound 17 to compound 13 via 5′-acetoxy hydrolysis and the conversion of compound 5 to compound 13 via 5′-pentoxycarbonyl hydrolysis is presented in Table 1 below.
Kinetic analysis data for compounds 20 and 21 in human liver S9 was generated in accordance with the general procedure described above.

[6] = Half-life measurements in human plasma (HPLC-UV); assay type: in vitro ADME; conditions: human, plasma, 37° C., hydrolysis through two potential pathways, read-out: hydrolysis half-life in human plasma (converted)
Experimental: To evaluate the hydrolysis rates of emtricitabine compounds 9-16, HPLC coupled with UV detection was used with the following method (0% to 100% acetonitrile in Et3NHOAc (50 mM, pH 8) gradient) over 10 minutes at a flow rate of 3 mL min^−1, held at 100% acetonitrile for 3 minutes, ramped down to 5% acetonitrile over 0.2 minutes and then held for 2.8 minutes. Male human plasma (Bioreclamation) or female human skeletal muscle S9 (7.96 mg/mL, Bioreclamation) was pre-incubated at 37° C. for 5 minutes. Compounds 9-16 (1 mM) were added and the reaction was incubated at 37° C. […] The supernatant was diluted 10 fold into Tris buffer (30 mM, pH 7.4) and injected onto the HPLC for analysis.
To evaluate the hydrolysis rates of emtricitabine trimethyl lock prodrugs, HPLC coupled with UV detection was used with the following method (0% to 100% acetonitrile in Et3NHOAc (50 mM, pH 8) gradient) over 10 minutes at a flow rate of 3 mL min^−1, held at 100% acetonitrile for 3 minutes, ramped down to 5% acetonitrile over 0.2 minutes and then held for 2.8 minutes. Human plasma (Bioreclamation) or human skeletal muscle S9 (7.96 mg/mL, Bioreclamation) was pre-incubated at 37° C. for 5 minutes. Emtricitabine trimethyl lock compound 25 (1 mM) was added and the reaction was incubated at 37° C. […] The supernatant was diluted in Tris buffer (100 mM, pH 7.4) and injected onto the HPLC for analysis. […]

UGT enzymes = assay: UGT activity in human liver S9; conditions: 1 mM, human liver S9 2.0 mg/mL, UDPGA 8 mM
Experimental: (§3) Reaction mixtures containing phosphate buffer (100 mM, pH 7.4), mixed pooled gender human liver S9 (2.0 mg/mL), MgCl2 (10 mM), UDPGA (8 mM), and D-saccharic acid-1,4-lactone (2 mM) were pre-incubated at 37° C. for 5 minutes. The reactions were then initiated by the addition of emtricitabine or compound 13 (1 mM). After incubation at 37° C., aliquots were taken at each time point and quenched in two volumes of ice-cold methanol. The quenched aliquots were then centrifuged at 14000 rpm for 4 minutes. The supernatant was then diluted into phosphate buffer (100 mM, pH 7.4) to yield samples with concentrations suitable for analysis. The samples were analyzed by HPLC with UV detection using the following method (0% to 100% acetonitrile in Et3NHOAc (50 mM, pH 8) gradient) over 10 minutes at a flow rate of 3 mL min^−1, held at 100% acetonitrile for 3 minutes, ramped down to 5% acetonitrile over 0.2 minutes and then held for 2.8 minutes.

CYP enzymes = assay: Cytochrome P450 activity in human liver microsomes; conditions: 1 mM, 2.0 mg/mL pooled mixed gender human liver microsomes
Experimental: as §3, with “liver microsomes” for “liver S9”, “mg/mL), NADP+ (1” for “mg/mL), MgCl2 (10”, “mM), glucose-6-phosphate (5” for “mM), UDPGA (8”, “and glucose-6-phosphate dehydrogenase (1.5 Unit/mL)” for “and D-saccharic acid-1,4-lactone (2 mM)”, “initiated via” for “initiated by”

CD4+ T cells = assay: Viability staining (Zombie Red) in single-round infectivity assay
Experimental: Peripheral blood mononuclear cells were isolated from healthy blood donors using Hypaque-Ficoll gradient centrifugation. CD4+ T cells were selected by magnetic beads (Miltenyi) and activated using anti-CD3 and anti-CD28 antibodies. Activated cells were seeded onto a 96-well plate at a concentration of 1×10^5 cells/well in RPMI1640 supplemented with 10% FBS, cytokine-rich supernatant, and 50% heat-inactivated human serum. Test compounds were added at this step and maintained throughout the culture. Cells were incubated at 37° C. for 21 hours. Pseudotype (GFP-tagged) HIV was then added to the culture via spinoculation and incubated for 3 days. Cells were then washed and stained with Zombie Red viability stain. Infectivity was quantified using flow cytometry.

Compound: CCCCOC(=O)Nc1nc(=O)n([C@@H]2CS[C@H](COC(=O)OCCCC)O2)cc1F [Compound 4, butyl (1-((2R,5S)-2-(((butoxycarbonyl)oxy)methyl)-1,3-oxathiolan-5-yl)-5-fluoro-2-oxo-1,2-dihydropyrimidin-4-yl)carbamate]
half-life at 0.5 mM [1]: 59.2 min
half-life at 0.5 mM [2]: 10.3 min
half-life at 0.5 mM [3]: 4.6 min
half-life at 0.5 mM [4]: 5.8 min

Intrinsic Clearance [5]: 26.33 µL/min/mg
Compound: CCCCCOC(=O)Nc1nc(=O)n([C@@H]2CS[C@H](COC(=O)OCCCCC)O2)cc1F [Compound 5, pentyl (5-fluoro-2-oxo-1-((2R,5S)-2-((((pentyloxy)carbonyl)oxy)methyl)-1,3-oxathiolan-5-yl)-1,2-dihydropyrimidin-4-yl)carbamate]
Km [5]: 600 µM
Vmax [5]: 948 nmol/h/mg

half-life at 0.5 mM [1]: 578 min
half-life at 0.5 mM [2]: 151 min
half-life at 0.5 mM [3]: 33.3 min
half-life at 0.5 mM [4]: 16.7 min
Compound: CCCCCCCCOC(=O)Nc1nc(=O)n([C@@H]2CS[C@H](COC(=O)OCCCCCCCC)O2)cc1F [Compound 8, octyl (5-fluoro-1-((2R,5S)-2-((((octyloxy)carbonyl)oxy)methyl)-1,3-oxathiolan-5-yl)-2-oxo-1,2-dihydropyrimidin-4-yl)carbamate]

Intrinsic Clearance [5]: 62.05 µL/min/mg
Compound: CCCCCOC(=O)Nc1nc(=O)n([C@@H]2CS[C@H](COC(C)=O)O2)cc1F [Compound 17, ((2R,5S)-5-(5-fluoro-2-oxo-4-(((pentyloxy)carbonyl)amino)pyrimidin-1 (2H)-yl)-1,3-oxathiolan-2-yl)methyl acetate]
Km [5]: 1310 µM
Vmax [5]: 4877 nmol/h/mg

half-lives in human liver S9 [5]: comparable half-lives
Compound: CCCCCCCCOC(=O)Nc1nc(=O)n([C@@H]2CS[C@H](COC(C)=O)O2)cc1F [Compound 20, ((2R,5S)-5-(5-fluoro-4-(((octyloxy)carbonyl)amino)-2-oxopyrimidin-1 (2H)-yl)-1,3-oxathiolan-2-yl)methyl acetate]

half-lives in human liver S9 [5]: comparable half-lives
Compound: CCCCCCCCOC(=O)Nc1nc(=O)n([C@@H]2CS[C@H](COC(=O)C(C)C)O2)cc1F [Compound 21, ((2R,5S)-5-(5-fluoro-4-(((octyloxy)carbonyl)amino)-2-oxopyrimidin-1 (2H)-yl)-1,3-oxathiolan-2-yl)methyl isobutyrate]

Compound: CC(=O)Oc1cc(C)cc(C)c1C(C)(C)CC(=O)Nc1ncnc2c1ncn2C[C@@H](C)OCP(=O)(N[C@@H](C)C(=O)OC(C)C)Oc1ccccc1 (stereo partly drawn) [Compound 26, (2S)-isopropyl (((((R)-1-(6-(3-(2-acetoxy-4,6-dimethylphenyl)-3-methylbutanamido)-9H-purin-9-yl)propan-2-yl)oxy)methyl)(phenoxy)phosphoryl)-L-alaninate]
half-life at 1 mM [6]: 66 min

metabolism by UGT enzymes (UGT enzymes): not metabolized
metabolism by CYP enzymes (CYP enzymes): not metabolized
Compound: Nc1nc(=O)n([C@@H]2CS[C@H](CO)O2)cc1F [Emtricitabine, emtricitabine]
toxicity on CD4+ T cells (viability staining) (CD4+ T cells): little to no toxicity
